ChEMBL document CHEMBL1140860, “Synthesis and evaluation of dihydroartemisinin and dihydroartemisitene acetal dimers showing anticancer and antiprotozoal activity” (Bioorg Med Chem, 2009)

Tests used:
SNB-19 = experiment: Growth inhibition of human SNB19 cells after 48 hrs by sulforhodamine B assay; format: functional; details: SNB-19, 48 h
HL-60 [1] = experiment: Antitumor activity against human HL60 cells xenografted athymic nude mouse at 25 mg/kg, sc administered QD for 10 days relative to control; format: functional; details: route subcutaneous
SN12C = experiment: Growth inhibition of human SN12C cells after 48 hrs by sulforhodamine B assay; format: functional
MDA-MB-231 = experiment: Growth inhibition of human MDA-MB-231 cells after 48 hrs by sulforhodamine B assay; format: functional; details: MDA-MB-231, 48 h
SK-MEL-28 = experiment: Growth inhibition of human SK-MEL-28 cells after 48 hrs by sulforhodamine B assay; format: functional; details: SK-MEL-28, 48 h
HUVEC [2] = experiment: Antiangiogenic activity against HUVEC assessed as inhibition of VEGF-induced cell migration by NCI antiangiogenesis assay; format: functional, cell-based; details: Homo sapiens
HL-60 [3] = experiment: Growth inhibition of human HL-60(TB) cells after 48 hrs by sulforhodamine B assay; format: functional; details: HL-60, 48 h
SK-MEL-5 = experiment: Growth inhibition of human SK-MEL-5 cells after 48 hrs by sulforhodamine B assay; format: functional; details: SK-MEL-5, 48 h
MOLT-4 = experiment: Growth inhibition of human MOLT4 cells after 48 hrs by sulforhodamine B assay; format: functional; details: MOLT-4, 48 h
U-251 = experiment: Growth inhibition of human U251 cells after 48 hrs by sulforhodamine B assay; format: functional; details: U-251, 48 h
Mus musculus [4] = experiment: Toxicity in human HL60 cells xenografted athymic nude mouse assessed as mortality at 25 mg/kg, sc administered QD for 10 days; format: organism-based, HL-60; design: dose 25 mg/kg, route subcutaneous; details: in vivo, 240 h
Mus musculus [5] = experiment: Toxicity in human HL60 cells xenografted athymic nude mouse assessed as body weight loss at 25 mg/kg, sc administered QD for 10 days relative to control; format: organism-based, HL-60; design: dose 25 mg/kg, route subcutaneous; details: in vivo, 240 h
HUVEC [6] = experiment: Antiangiogenic activity against HUVEC assessed as inhibition of capillary-like structure formation by NCI antiangiogenesis assay; format: functional, cell-based; details: Homo sapiens
EKVX = experiment: Growth inhibition of human EKVX cells after 48 hrs by sulforhodamine B assay; format: functional
Mus musculus [7] = experiment: Toxicity in human HL60 cells xenografted athymic nude mouse assessed as mortality at 50 mg/kg, sc administered QD for 10 days; format: organism-based, HL-60; design: dose 50 mg/kg, route subcutaneous; details: in vivo, 240 h
HUVEC [8] = experiment: Antiangiogenic activity against HUVEC assessed as growth inhibition by NCI antiangiogenesis assay; format: functional, cell-based; details: Homo sapiens
[9] = Growth inhibition of human […] cells after 48 hrs by sulforhodamine B assay; format: functional
HCT-15 = experiment: Growth inhibition of human HCT15 cells after 48 hrs by sulforhodamine B assay; format: functional; details: HCT-15, 48 h
HL-60 [10] = experiment: Antitumor activity against human HL60 cells xenografted athymic nude mouse assessed as delay in tumor growth time at 25 mg/kg, sc administered QD; format: functional; details: route subcutaneous
LOX IMVI = experiment: Growth inhibition of human LOXIMVI cells after 48 hrs by sulforhodamine B assay; format: functional
SW-620 = experiment: Growth inhibition of human SW620 cells after 48 hrs by sulforhodamine B assay; format: functional; details: SW-620, 48 h
NCI/ADR-RES = experiment: Growth inhibition of human NCI/ADR-RES cells after 48 hrs by sulforhodamine B assay; format: functional
[11] = Selectivity index, ratio of TC50 for african green monkey (Cercopithecus aethiops) Vero cells to IC50 for chloroquine-resistant Plasmodium falciparum W2; format: toxicity, cell-based
Leishmania donovani = experiment: Antileishmanial activity against Leishmania donovani promastigotes after 48 hrs by alamar-blue assay; format: functional, organism-based
HL-60 [12] = experiment: Antitumor activity against human HL60 cells xenografted athymic nude mouse assessed as delay in tumor growth time at 50 mg/kg, sc administered QD; format: functional; details: route subcutaneous
Mus musculus [13] = experiment: Toxicity in human HL60 cells xenografted athymic nude mouse assessed as body weight loss at 50 mg/kg, sc administered QD for 10 days relative to control; format: organism-based, HL-60; design: dose 50 mg/kg, route subcutaneous; details: in vivo, 240 h
HL-60 [14] = experiment: Antitumor activity against human HL60 cells xenografted athymic nude mouse at 50 mg/kg, sc administered QD for 10 days relative to control; format: functional; details: route subcutaneous

Structure (SMILES) | GI50 (SNB-19) | GI50 (SN12C) | GI50 (MDA-MB-231) | GI50 (SK-MEL-28) | IC50 (HUVEC [2]) | GI50 (HL-60 [3]) | GI50 (SK-MEL-5) | GI50 (MOLT-4) | GI50 (U-251) | IC50 (HUVEC [6]) | GI50 (EKVX) | IC50 (HUVEC [8]) | GI50 [9] | GI50 (HCT-15) | GI50 (LOX IMVI) | GI50 (SW-620) | GI50 (NCI/ADR-RES) | selectivity ratio [11] | IC50 (Leishmania donovani) | IC90 (Leishmania donovani) | also measured
C[C@H]1[C@@H](OCC(CO[C@H]2O[C@@H]3O[C@@]4(C)CC[C@H]5[C@H](C)CC[C@@H]([C@H]2C)[C@@]35OO4)OC(=O)CCC(=O)O)O[C@@H]2O[C@@]3(C)CC[C@H]4[C@H](C)CC[C@@H]1[C@@]24OO3 (some centres undefined) | 10100 nM | 16 nM | 345 nM | 8380 nM | 45300 nM | 11 nM | 147 nM | 290 nM | < 10 nM | 45800 nM | 470 nM | 56000 nM | < 10 nM | < 10 nM | < 10 nM | 29 nM | 207 nM |  |  |  | T/C (HL-60 [1]): 23%; Activity (Mus musculus [4]): Non-toxic; Activity (Mus musculus [5]): 1%; Activity (Mus musculus [7]): Toxic; Activity (HL-60 [10]): 30 days
COCC(CO[C@H]1O[C@@H]2O[C@@]3(C)CC[C@H]4[C@H](C)CC[C@@H]([C@H]1C)[C@@]24OO3)O[C@H]1O[C@@H]2O[C@@]3(C)CC[C@H]4[C@H](C)CC[C@@H]([C@H]1C)[C@@]24OO3 (some centres undefined) | 249 nM | 153 nM | 13100 nM | 5750 nM |  | 28 nM | 496 nM | 27 nM | 21 nM |  | 689 nM |  | 4 nM | 17 nM | 23 nM | 15 nM | 533 nM | > 159 |  |  | 
C[C@H]1[C@H](OCCO[C@H]2O[C@@H]3O[C@@]4(C)CC[C@H]5[C@H](C)CC[C@@H]([C@H]2C)[C@@]35OO4)O[C@@H]2O[C@@]3(C)CC[C@H]4[C@H](C)CC[C@@H]1[C@@]24OO3 | 8260 nM | 55 nM | 534 nM | 727 nM |  | 15 nM | 34 nM | 15 nM | 49 nM |  | 40 nM |  | < 8 nM | 17 nM | 30 nM | 25 nM | 55 nM | > 37 |  |  | 
C[C@H]1[C@@H](OCC(=O)CO[C@H]2O[C@@H]3O[C@@]4(C)CC[C@H]5[C@H](C)CC[C@@H]([C@H]2C)[C@@]35OO4)O[C@@H]2O[C@@]3(C)CC[C@H]4[C@H](C)CC[C@@H]1[C@@]24OO3 | 13300 nM | < 10 nM | 3330 nM | 11700 nM | 28500 nM | < 10 nM | < 10 nM | < 10 nM | < 10 nM | > 50000 nM | 78 nM | 57000 nM | < 10 nM | < 10 nM | < 10 nM | < 10 nM | 40 nM | > 23800 | 10400 nM | 80300 nM | 
C[C@H]1[C@@H](O[C@H]2CC[C@@H](O[C@H]3O[C@@H]4O[C@@]5(C)CC[C@H]6[C@H](C)CC[C@@H]([C@H]3C)[C@@]46OO5)CC2)O[C@@H]2O[C@@]3(C)CC[C@H]4[C@H](C)CC[C@@H]1[C@@]24OO3 | 99 nM | 25 nM | 92 nM | 85 nM | 3300 nM | 17 nM | 17 nM | 20 nM | 19 nM | 38800 nM | 24 nM | 42000 nM | < 5 nM | 14 nM | 17 nM | 12 nM | 77 nM | > 915 | 7700 nM | 77100 nM | T/C (HL-60 [1]): 50%; Activity (HL-60 [12]): 36 days; Activity (Mus musculus [13]): 17%; Activity (Mus musculus [4]): Non-toxic; T/C (HL-60 [14]): 34%; Activity (Mus musculus [5]): 3%; Activity (Mus musculus [7]): Non-toxic; Activity (HL-60 [10]): 8 days
C[C@H]1[C@@H](O[C@H]2CC[C@H](O[C@H]3O[C@@H]4O[C@@]5(C)CC[C@H]6[C@H](C)CC[C@@H]([C@H]3C)[C@@]46OO5)CC2)O[C@@H]2O[C@@]3(C)CC[C@H]4[C@H](C)CC[C@@H]1[C@@]24OO3 | 372 nM | 97 nM | 520 nM | 98800 nM |  | 32 nM | 49 nM | 99 nM | 16 nM |  | 28 nM |  | < 10 nM | < 10 nM | 13 nM | 24 nM | 130 nM | > 553 | 7400 nM | 18500 nM | 
C[C@H]1[C@@H](OCC(O)CO[C@@H]2C[C@@H]3CC[C@@H](C)[C@@H]4CC[C@@]5(C)OO[C@@]34[C@H](O2)O5)O[C@@H]2O[C@@]3(C)CC[C@H]4[C@H](C)CC[C@@H]1[C@@]24OO3 (some centres undefined) | 27600 nM | 263 nM | 45800 nM | 9390 nM | 1800 nM | 62 nM | 95 nM | 298 nM |  | 30800 nM | 307 nM | 77000 nM | 24 nM | 27 nM | 110 nM | 99 nM | 340 nM | > 6430 | 5000 nM | 16000 nM | T/C (HL-60 [1]): 68%; Activity (HL-60 [12]): 34 days; Activity (Mus musculus [13]): 5%; Activity (Mus musculus [4]): Non-toxic; T/C (HL-60 [14]): 34%; Activity (Mus musculus [5]): 2%; Activity (Mus musculus [7]): Non-toxic; Activity (HL-60 [10]): 16 days
C[C@H]1[C@@H](OCCO[C@H]2O[C@@H]3O[C@@]4(C)CC[C@H]5[C@H](C)CC[C@@H]([C@H]2C)[C@@]35OO4)O[C@@H]2O[C@@]3(C)CC[C@H]4[C@H](C)CC[C@@H]1[C@@]24OO3 | > 100000 nM | 540 nM | 15000 nM | 32500 nM |  | 29 nM | 316 nM | 42 nM | 267 nM |  | 146 nM |  | < 10 nM | 19 nM | 72 nM | 70 nM | 243 nM | > 64 |  |  | 
